These compounds were tested on CSCs generated from differentiated cancer cells (assay: Self-renewal of CSCs (secondary tumorspheres) generated from differentiated cancer cells, factor added to basic protocol). Conditions: added to second incubation; data not shown.
Type: cell-based
Protocol: (§1) In order to generate CSCs in vitro, both primary differentiated cancer cells (primary glioma cells) as well as cells from a cancer cell line (U87 cells) were obtained. Glioma cells and U87 cells were trypsinized, and washed three times with medium +10% FCS. The cells were then resuspended in medium that was brought to a pH of 6.0 and were placed on a rotator and incubated for 45-90 minutes. The cells were then incubated in medium supplemented with EGF and FGF. The cells were optionally kept in mild hypoxic conditions (2-3% oxygen) during this second incubation and were then plated on bacterial plates.
(§2) Tumorspheres formed on these plates within one week and were removed from the cells that had attached to the dish. The tumorspheres were disaggregated and the cells were re-plated at limiting dilution to generate secondary spheroids. The secondary tumorspheres were then characterized for CSC specific markers, the ability to self-renew and the ability to generate tumors that recapitulate the parental tumors.
(§3) Knowing that the basic protocol for generating CSCs (acid, EGF/FGF and two rounds of sphere generation) was successful; several modifications to the protocol were examined. […] Second, a wide range of factors were found, that when supplemented to the EGF and FGF containing media, increased the efficacy of the protocol, either by increasing the number of CSCs produced or by increasing their stemness.
In the case of CCCC(CCC)C(=O)O [Valporic acid], the “efficacy in enhancing dedifferentiation” value is reported as “effective”.
For “insulin: insulin, added to the second incubation”, the “efficacy in enhancing dedifferentiation” value was “effective”.

Same assay, conditions: small molecule added to second incubation; FIG. 6A
For N[C@@H]1C[C@H]1c1ccccc1 (racemic) [tranylcypromine], the “effect on rate of self-renewal” value was “increase the rate of self-renewal”.
With Nc1nccc2c1ncn2[C@@H]1C=C(CO)[C@@H](O)[C@H]1O [3-deazaneplanocin A] the “effect on rate of self-renewal” value was “increase the rate of self-renewal”.
In the case of O=C(O)CCCc1ccccc1 [4-phenylbutyrate], the “effect on rate of self-renewal” value is reported as “increase the rate of self-renewal”.
Nc1ncn([C@H]2C[C@H](O)[C@@H](CO)O2)c(=O)n1 [5-aza-2′-deoxycytidine] was tested, and the “effect on rate of self-renewal” value was “increase the rate of self-renewal”.
In the case of Cc1c[nH]c(-c2cnc(NCCNc3ccc(C#N)cn3)nc2-c2ccc(Cl)cc2Cl)n1 [CHIR99021], the “effect on rate of self-renewal” value is reported as “increase the rate of self-renewal”.
With CCCCCCCCCCCCCC=CC(O)C(CO)NC(=O)CCCCC (stereo not shown) [Ceramide C6] the “effect on rate of self-renewal” value was “increase the rate of self-renewal”.
With CCCCCCCCCCCCCC(=O)O[C@@H]1[C@@H](C)[C@@]2(O)[C@@H](C=C(CO)C[C@]3(O)C(=O)C(C)=C[C@@H]23)[C@@H]2C(C)(C)[C@]12OC(C)=O [PMA, phorbol 12-myristate 13-acetate, reference compound] the “effect on rate of self-renewal” value was “increase the rate of self-renewal”.
For C[C@@H](N)[C@H]1CC[C@H](C(=O)Nc2ccncc2)CC1 [Y-27632], the “effect on rate of self-renewal” value was “increase the rate of self-renewal”.

Each compound was assayed on Sox2 (assay: Sox2 expression in generated CSCs, factor added to basic protocol). Conditions: PKC activation; FIG. 6B.
Type: cell-based
Protocol: as §1, §2, §3
CCCCCCCCCCCCCC(=O)O[C@@H]1[C@@H](C)[C@@]2(O)[C@@H](C=C(CO)C[C@]3(O)C(=O)C(C)=C[C@@H]23)[C@@H]2C(C)(C)[C@]12OC(C)=O [PMA, phorbol 12-myristate 13-acetate, reference compound] was tested, and the “effect on Sox2 expression” value was “increase Sox2 expression”.
“PKC alpha: protein kinase C alpha; activators or overexpression” was tested, and the “effect on Sox2 expression” value was “increase Sox2 expression” and the “effectiveness on Sox2 expression compared with PMA” value was “more effective that PMA”.

These compounds were tested on differentiated cancer cells (assay: Efficacy and penetrance of dedifferentiation with transcription and secreted factors). Conditions: expression in the cells or in their media during second incubation or tumorsphere formation.
Type: cell-based
Protocol: as §1, §2
Lastly, several transcription factors and secreted factors that are known to enhance stemness or cancer progression were introduced into the differentiated cells during the second incubation or during tumorsphere formation.
In the case of “LIF: transcription or secreted factor expressed in the cells or in their media”, the “effect on dedifferentiation brought about by the standard protocol” value is reported as “increase the efficacy and penetrance of the dedifferentiation”.
For “NANOG: transcription or secreted factor expressed in the cells or in their media”, the “effect on dedifferentiation brought about by the standard protocol” value was “increase the efficacy and penetrance of the dedifferentiation”.
In the case of “STAT3: transcription or secreted factor expressed in the cells or in their media”, the “effect on dedifferentiation brought about by the standard protocol” value is reported as “increase the efficacy and penetrance of the dedifferentiation”.

— patent US11053476B2, “Generation of cancer stem cells and use thereof” (EXOSTEM BIOTEC LTD., priority 2016, dated 2021)
